The source of these data is US10221420B2, “Aptamer construct” (priority 2014, dated 2019).

Data set [1] relates to HT29 cells. Briefly: Tumoursphere formation assay (CSC frequency analysis in vitro). The conditions noted are these: HT29, 96-well, lower seeding dose (10 or 5 cells/well), versus PBS control. It counts as cell-based, human. As for the experimental part:
Cells were harvested at 80% confluence with trypsin digestion and resuspended as single cells in DMEM/F12 serum-free media following centrifugation (1000×g for 5 min). Cells were plated into 96-well ultralow attachment plates at a density of 5, 10, 50, 100, 500, and 1000 cells per well, or at 4000 cells /well in 6-well ultralow attachment plates for tumoursphere formation. Three experiment groups were used: tumoursphere medium control, free DOX treatment (1, 1.5 and 2 μM) and aptamer-Dox treatment (1, 1.5 and 2 μM equivalent to the same concentration of free DOX). After incubation for 24 h at 37° C. supernatant was removed and replaced with equal volume of fresh CSC medium. A tumoursphere was defined as a cell aggregate with a diameter of over 50 μm with well defined borders. Tumoursphere formation frequency and size were recorded 3 days after seeding. The frequency of CSCs was calculated using the ELDA website (http://bioinf.wehi.edu.au/software/elda/index.html. The tumoursphere formation frequency in 6-well incubation was calculated according to the formula F=Numbers of forming tumourspheres/Number of single cells plated (F is the tumoursphere formation frequency).

Data set [2] concerns HT29 cells. Briefly: Internalisation of aptamer-Dox conjugate by confocal microscopy. The class given is cell-based, human. As for the experimental part:
Both HT29 and HEK293T were seeded at […] cells per well in 8-chamber slide for 24 h in preparation for confocal microscopy. Cells were incubated with blocking buffer (PBS with 10% FCS, 1 mg/mL BSA, 0.1 mg/mL tRNA) for 20 min, followed by washing twice with washing buffer (PBS containing 5% FBS, 2.5 mM MgCl2, and 5 mM NaCl) prior to incubation with 200 nM aptamer, negative-control aptamer, aptamer-Dox conjugate or […] Bisbenzimide Hoechst 33342 (3 mg/ml) (Sigma)) was added to the cells during the final 15 min of incubation. The aptamer solution was removed and the cells were washed three times for 5 min each in PBS prior to visualisation using a FluoView FV10i laser scanning confocal microscope (Olympus).

The target of data set [3] is T1, CD133 expressed on HT29 cells (Homo sapiens, UniProt O43490).
T1 construct: host or cells: HT-29 human colorectal cancer cells
T1 sequence (O43490 20-865): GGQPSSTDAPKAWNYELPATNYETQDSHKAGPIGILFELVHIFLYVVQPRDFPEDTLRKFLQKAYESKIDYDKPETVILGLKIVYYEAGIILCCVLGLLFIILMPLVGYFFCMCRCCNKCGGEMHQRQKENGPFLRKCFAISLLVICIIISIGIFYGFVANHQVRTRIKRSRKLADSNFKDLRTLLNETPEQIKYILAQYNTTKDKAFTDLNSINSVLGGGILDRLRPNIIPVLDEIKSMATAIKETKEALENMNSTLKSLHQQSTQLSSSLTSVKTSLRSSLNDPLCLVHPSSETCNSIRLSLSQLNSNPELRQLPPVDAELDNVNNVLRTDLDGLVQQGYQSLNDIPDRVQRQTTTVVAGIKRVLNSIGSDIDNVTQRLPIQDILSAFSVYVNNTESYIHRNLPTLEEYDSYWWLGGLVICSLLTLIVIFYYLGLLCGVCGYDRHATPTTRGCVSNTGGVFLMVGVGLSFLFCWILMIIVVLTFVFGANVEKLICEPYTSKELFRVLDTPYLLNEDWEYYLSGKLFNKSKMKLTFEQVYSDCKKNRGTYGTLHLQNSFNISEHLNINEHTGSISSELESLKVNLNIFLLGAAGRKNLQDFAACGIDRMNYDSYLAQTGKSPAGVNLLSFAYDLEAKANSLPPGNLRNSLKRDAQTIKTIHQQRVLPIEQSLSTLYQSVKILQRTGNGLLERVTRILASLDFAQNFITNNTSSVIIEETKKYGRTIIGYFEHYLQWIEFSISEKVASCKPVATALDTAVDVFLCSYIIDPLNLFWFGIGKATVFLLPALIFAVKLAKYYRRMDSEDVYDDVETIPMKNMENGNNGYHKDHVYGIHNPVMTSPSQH
Briefly: Equilibrium dissociation constant by flow cytometry on CD133 positive HT29 cells. The class given is binding. Conditions: Cy5 labelled. As to the method:
To minimize the non-specific binding, 1×10^5 HT29 or HEK293T cells were first incubated with blocking buffer (PBS with 10% FCS, 1% BSA and 1% tRNA) for 20 min. Cells were then washed twice with washing buffer (PBS containing 5% FBS and 2.5 mM MgCl2) and incubated on ice for 1 h with either CD133 aptamer, negative-control aptamer, CD133 aptamer-Dox conjugate or negative-control aptamer-Dox conjugate, all labelled with Cy5 in conjugation buffer (50 mM NaCl, and 2.5 mM MgCl2).
Prior to flow cytometric analysis, cells were again washed twice with washing buffer and then suspended in 150 μl washing buffer. Data was then collected using the flow cytometer (FACS CANTOII, Becton Dickerson) to measure the fluorescence intensity of the aptamer and the binding affinity was determined by normalising the fluorescence intensity with the fluorescent background from that of the negative-control aptamer and then derived using Graph Pad Prism software.
Background: In flow cytometry, cells or beads pass a laser one at a time.

In data set [4] the target is T2, CD133 (prominin-1) (UniProt O43490 O43490:20-865).
T2 sequence: T1 sequence (O43490 20-865)
Briefly: flow; HT29 cells, 50 mM NaCl, 2.5 mM MgCl2, on ice 1 h; CD133-negative HEK293T gave KD >1000 nM. Conditions: tags: native CD133 on HT-29 colorectal cancer cells (ATCC); label: Cy5; hairpin with 10-bp DNA stem. As for the experimental part: (§1) Determination of the Equilibrium Dissociation Between the Aptamer-Dox Conjugate and its Target Cells To minimize the non-specific binding, 1×10^5 HT29 or HEK293T cells were first incubated with blocking buffer (PBS with 10% FCS, 1% BSA and 1% tRNA) for 20 min. Cells were then washed twice with washing buffer (PBS containing 5% FBS and 2.5 mM MgCl2) and incubated on ice for 1 h with either CD133 aptamer, negative-control aptamer, CD133 aptamer-Dox conjugate or negative-control aptamer-Dox conjugate, all labelled with Cy5 in conjugation buffer (50 mM NaCl, and 2.5 mM MgCl2).
(§2) To determine whether the conjugation of DOX impedes binding affinity and specificity of the aptamer to CD133 the fluorescently labelled Cy5 aptamer-Dox conjugate was incubated with HT29 colorectal cancer cells and the equilibrium dissociation constant (K_D) was determined via flow cytometric analysis (FIG. 6).
Two cell lines, HT29 and HEK293T, were chosen for the study. […] To ascertain that CD133 aptamer binds to CD133 via specific molecular interaction rather than a non-specific binding between a nucleic acid and CD133, the experiments were repeated with a negative control aptamer-Dox conjugate (FIG. 6B). This negative control aptamer has the identical nucleic acid sequence as the positive aptamer with the exception of a 2'-O-methyl modification instead of a 2'-fluoro chemical modification.

Data set [5] deals with T2, CD133 (prominin-1). Briefly: flow; HT29 cells, 50 mM NaCl, 2.5 mM MgCl2, on ice 1 h. The conditions noted are these: tags: native CD133 on HT-29 colorectal cancer cells (ATCC); label: Cy5; hairpin with 10-bp DNA stem. As to the method: as §1, §2

As to `COc1cccc2c1C(=O)c1c(O)c3c(c(O)c1C2=O)C[C@@](O)(C(=O)CO)C[C@@H]3O[C@H]1C[C@H](N)[C@H](O)[C@H](C)O1` [free DOX, doxorubicin], the “frequency of tumoursphere formation” value in data set [1] is given as “no significant decrease”. For orientation: Kd means the free concentration of one partner at which half of the binding sites on the other are occupied at equilibrium, for simple one-to-one binding. The low end stands for tighter binding, the high end for weaker binding. Consider “5′-mCGmCGmCGmCmCGmCA(2′fC)G(2′-fU)A(2′fU)A(2′fC)(2′fU)A(2′fU)GmCGGmCGmCGmCG-(inv dT)-3′ (SEQ ID NO:5) (CGCGCGCCGCACGUAUACUAUGCGGCGCGCGT; 2'-F, 5-methyl-dC modifications; 3' inverted dT; a synthetic aptamer against CD133; modified_base (1)..(1) 5-methyl deoxycytidine; modified_base (3)..(3) 5-methyl deoxycytidine; modified_base (5)..(5) 5-methyl deoxycytidine; modified_base (7)..(8) 5-methyl deoxycytidine; modified_base (10)..(10) 5-methyl deoxycytidine; modified_base (12)..(12) 2′-fluoro 5-methyl deoxycytidine; modified_base (14)..(14) 2′-fluoro deoxyuridine; modified_base (16)..) [CD133 aptamer, hybrid RNA/DNA CD133 aptamer; RNA stem replaced with a 10-bp DNA stem containing 5′methyl-dC]”, for which the “internalisation (Cy5 aptamer)” value in data set [2] is given as “successfully internalised”. In addition, the dissociation constant (Kd) in data set [3] came to 84.8 nM.

B1: CD133 aptamer-Dox conjugate (mixed)
RNA: CGCGCGCCGCACGUAUACUAUGCGGCGCGCG
modifications: DNA stem with 5-methyl-dC; 2'-F C and U in RNA loop; 3' inverted dT; doxorubicin intercalated in stem
In the case of B1, the Kd in data set [4] was found to be 23.9 nM.

B2: CD133 RNA/DNA hybrid aptamer, unconjugated (mixed)
RNA: B1 RNA
modifications: DNA stem with 5-methyl-dC (all stem C except as printed); 2'-F C and U in RNA loop ACGUAUACUAU; 3' inverted dT
The molecule B2 displayed a Kd in data set [5] of 84.8 nM.
